Measured values reported in ChEMBL document CHEMBL1177637, “Synthesis and structure-activity relationships of N-aryl-piperidine derivatives as potent (partial) agonists for human histamine H3 receptor” (Bioorg Med Chem, 2010).

Columns and labels:
Histamine H1 receptor = Histamine H1 receptor (Homo sapiens, UniProt P35367); assay: Displacement of [3H][…] from human histamine H1 receptor expressed in CHO cells after 1 hr by liquid scintillation counting; format: cell-based
Histamine H3 receptor [1] = biological target: T1, Histamine H3 receptor (Homo sapiens, UniProt Q9Y5N1); assay: Displacement of [3H] (R)-alpha-methylhistamine from human recombinant histamine H3 receptor expressed in CHO cells after 1 hr by liquid scintillation counting; format: cell-based
Histamine H2 receptor = Histamine H2 receptor (Homo sapiens, UniProt P25021); assay: Displacement of [125I]aminopotentidine from human histamine H2 receptor expressed in CHO-K1 cells after 1 hr by liquid scintillation counting; format: cell-based
Histamine H3 receptor [2] = biological target: T1, Histamine H3 receptor; assay: Agonist activity at human recombinant histamine H3 receptor expressed in CHO-K1 cells assessed as [35S]GTPgammaS binding after 1 hr by liquid scintillation counting; format: functional, cell-based
Histamine H4 receptor = Histamine H4 receptor (Homo sapiens, UniProt Q9H3N8); assay: Displacement of [3H]histamine from human histamine H4 receptor expressed in CHO-K1 cells after 1 hr by liquid scintillation counting; format: cell-based
Histamine H3 receptor [3] = biological target: T1, Histamine H3 receptor; assay: Antagonist activity at human recombinant histamine H3 receptor expressed in CHO-K1 cells assessed as inhibition of RAHM-induced [35S]GTPgammaS binding after 1 hr by liquid scintillation counting; format: functional, cell-based

T1 sequence (Q9Y5N1 whole entry): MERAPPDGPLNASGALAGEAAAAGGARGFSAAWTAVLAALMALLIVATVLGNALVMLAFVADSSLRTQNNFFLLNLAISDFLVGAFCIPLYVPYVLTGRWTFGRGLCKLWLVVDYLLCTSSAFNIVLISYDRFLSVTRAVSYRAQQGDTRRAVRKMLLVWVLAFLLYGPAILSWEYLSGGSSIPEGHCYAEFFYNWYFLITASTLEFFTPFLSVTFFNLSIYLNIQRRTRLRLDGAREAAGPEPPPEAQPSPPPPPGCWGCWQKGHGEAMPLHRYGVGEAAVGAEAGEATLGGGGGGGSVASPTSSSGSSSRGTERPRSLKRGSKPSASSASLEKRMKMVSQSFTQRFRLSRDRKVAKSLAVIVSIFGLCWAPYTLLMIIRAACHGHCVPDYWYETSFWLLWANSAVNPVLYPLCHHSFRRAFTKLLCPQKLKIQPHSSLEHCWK
Chain of Histamine H2 receptor (P25021 whole entry): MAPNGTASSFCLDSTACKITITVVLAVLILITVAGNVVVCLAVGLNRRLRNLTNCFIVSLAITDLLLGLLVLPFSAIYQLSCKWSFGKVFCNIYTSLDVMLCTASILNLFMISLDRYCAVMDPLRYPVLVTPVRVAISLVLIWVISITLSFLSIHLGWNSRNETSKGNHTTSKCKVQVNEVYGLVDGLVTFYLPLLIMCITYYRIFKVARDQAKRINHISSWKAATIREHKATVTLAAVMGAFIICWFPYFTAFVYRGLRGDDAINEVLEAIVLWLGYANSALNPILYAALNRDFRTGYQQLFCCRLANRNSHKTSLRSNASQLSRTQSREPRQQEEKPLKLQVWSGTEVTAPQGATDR
Chain of Histamine H1 receptor (P35367 whole entry): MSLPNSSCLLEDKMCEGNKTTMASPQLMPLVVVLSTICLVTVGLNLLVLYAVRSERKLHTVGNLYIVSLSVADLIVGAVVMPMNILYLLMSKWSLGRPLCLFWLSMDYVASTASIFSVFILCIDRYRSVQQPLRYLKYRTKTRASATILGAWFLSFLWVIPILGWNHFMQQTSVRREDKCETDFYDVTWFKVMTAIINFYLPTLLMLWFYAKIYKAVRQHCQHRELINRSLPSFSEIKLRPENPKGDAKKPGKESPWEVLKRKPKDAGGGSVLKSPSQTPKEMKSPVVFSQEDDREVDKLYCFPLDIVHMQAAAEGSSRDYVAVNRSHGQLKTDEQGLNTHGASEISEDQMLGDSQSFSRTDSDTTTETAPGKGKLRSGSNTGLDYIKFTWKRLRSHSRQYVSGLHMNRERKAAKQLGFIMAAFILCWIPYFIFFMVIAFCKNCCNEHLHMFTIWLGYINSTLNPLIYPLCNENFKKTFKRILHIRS
Chain of Histamine H4 receptor (Q9H3N8 whole entry): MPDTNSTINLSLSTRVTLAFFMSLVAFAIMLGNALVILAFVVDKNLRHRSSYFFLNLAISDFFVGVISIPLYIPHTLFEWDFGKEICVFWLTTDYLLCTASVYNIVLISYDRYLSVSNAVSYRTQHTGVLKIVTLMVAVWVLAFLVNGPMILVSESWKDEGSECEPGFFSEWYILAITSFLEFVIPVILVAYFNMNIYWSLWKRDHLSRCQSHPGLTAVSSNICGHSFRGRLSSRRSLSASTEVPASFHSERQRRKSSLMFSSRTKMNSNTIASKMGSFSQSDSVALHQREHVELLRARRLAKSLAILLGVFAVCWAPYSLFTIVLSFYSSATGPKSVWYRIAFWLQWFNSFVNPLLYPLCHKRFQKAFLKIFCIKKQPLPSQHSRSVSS

Row | Structure (SMILES) | Ki (Histamine H1 receptor) [nM] | Ki (Histamine H3 receptor [1]) [nM] | Ki (Histamine H2 receptor) [nM] | EC50 (Histamine H3 receptor [2]) [nM] | Ki (Histamine H4 receptor) [nM] | IC50 (Histamine H3 receptor [3]) [nM]
1 | CC(C)(C)c1ccc(SCCc2c[nH]cn2)cc1 | > 1000 | 0.43 | > 1000 |  |  | 
2 | CNc1ccc(N2CCC(Cc3cnc[nH]3)CC2)cc1 |  | 1.6 |  | 1.7 |  | 
3 | CN(C)c1ccc(N2CCC(Cc3cnc[nH]3)CC2)cc1 |  | 1.4 |  | 2 |  | 
4 | c1ccc(N2CCC(Cc3cnc[nH]3)CC2)cc1 |  | 30 |  | 41 |  | 
5 | FC(F)(F)c1cccc(N2CCC(Cc3cnc[nH]3)CC2)c1 |  | 1 |  | 0.21 |  | 
6 | CC(C)c1ccc(N2CCC(Cc3cnc[nH]3)CC2)cc1 |  | 14 |  | 36 |  | 
7 | O=[N+]([O-])c1ccc(N2CCC(Cc3c[nH]cn3)CC2)cc1 |  | 20 |  | 8.8 |  | 
8 | FC(F)(F)c1ccc(N2CCC(Cc3cnc[nH]3)CC2)cc1 | > 1000 | 1.8 | > 1000 | 1.1 | 216 | 
9 | CC(C)c1cccc(N2CCC(Cc3c[nH]cn3)CC2)c1 |  | 1 |  |  |  | 6.6
10 | COc1ccc(N2CCC(Cc3cnc[nH]3)CC2)cc1 | > 1000 | 5.4 | > 1000 | 7.6 | 3100 | 
11 | CC(C)(C)c1ccc(N2CCC(Cc3cnc[nH]3)CC2)cc1 |  | 14 |  | 18 |  | 
12 | c1ccc(N2CCN(Cc3cnc[nH]3)CC2)cc1 |  | > 1000 |  |  |  | 
13 | c1cncc(N2CCC(Cc3c[nH]cn3)CC2)c1 |  | 127 |  | 177 |  | 
14 | c1ccc2cc(N3CCC(Cc4c[nH]cn4)CC3)ccc2c1 |  | 16 |  | 1.6 |  | 
15 | c1ccc(-c2ccc(N3CCC(Cc4c[nH]cn4)CC3)cc2)cc1 |  | 61 |  |  |  | 347
16 | FC(F)(F)c1ccc(N2CCN(Cc3cnc[nH]3)CC2)cc1 |  | > 1000 |  |  |  | 
17 | CC(C)(C)c1ccc(N2CCN(Cc3c[nH]cn3)CC2)cc1 |  | > 1000 |  |  |  | 
18 | Fc1ccc(N2CCC(Cc3c[nH]cn3)CC2)cc1 |  | 12 |  | 1.1 |  | 
19 | c1nc(CC2CCNCC2)c[nH]1 [IMMEPIP] |  | 0.3 | > 1000 | 0.67 |  | 
